The record followed here is patent US6756374B2, “Diaminothiazoles having antiproliferative activity” (Hoffmann-La Roche Inc., priority 2001, dated 2004).

The target of one assay is human cyclin D1-CDK4 (Homo sapiens, UniProt P11802). Description: FlashPlate kinase assay, cyclin D1-CDK4. The assay is classed as biochemical. To be noted: Rb protein substrate, 1 μM ATP. As for the experimental part:
(§1) To determine inhibition of Cdk4, Cdk2 and Cdk1 activity, kinase assays were conducted using FlashPlate™ assays (NEN™-Life Science Products). FlashPlate assays were performed using recombinant human cyclin B-CDK1, human cyclin E-CDK2 or human cyclin D1-CDK4 complexes. GST-cyclinE (GST-cycE), CDK2, GST-cyclinB (GST-cycB), CDK1, GST-CDK4 and cyclin D1 (cycD1) cDNA clones in baculovirus vectors were provided by Dr. W. Harper at the Baylor College of Medicine, Houston, Tex.
(§2) The expression of the 62Kd protein was under the control of an IPTG inducible promoter in an M15 E. coli strain. Cells were lysed by sonication and purification was carried out by binding lysates at pH 8.0 to a Ni-chelated agarose column pretreated with 1 mM imidazole. The resin was then washed several times with incrementally decreasing pH buffers to pH 6.0, and eluted with 500 mM imidazole. Eluted protein was dialysed against 20 mM HEPES pH 7.5, 30% glycerol, 200 mM NaCl, and 1 mM DTT. Purified Rb fusion protein stocks were quantitated for protein concentration, aliquoted, and stored at −70° C.
(§3) For all three kinase assays reported herein, 96-well FlashPlates were coated with Rb protein at 10 μg/ml, using 100 μl per well. Plates were incubated at 4° C. overnight or at room temperature for 3 hours on a shaker. To control for nonspecific phosphorylation, one row of wells was coated with 100 μl/well coating buffer (20 mM HEPES, 0.2 M NaCl). Plates were then washed twice with wash buffer (0.01% Tween 20 in phosphate-buffered saline). Compounds to be tested (“test compounds”) were added to the wells at 5×final concentration. Reactions were initiated by immediate addition of 40 μl reaction mix (25 mM HEPES, 20 mM MgCl2, 0.002% Tween 20, 2 mM DTT, 1 μM ATP, 4 nM ^33P-ATP) and a sufficient amount of enzyme to give counts that were at least 10-fold above background. Plates were incubated at room temperature on a shaker for 30 minutes. Plates were washed four times with the wash buffer, sealed, and counted on the TopCount scintillation counter (Packard Instrument Co., Downers Grove, Ill.]. The percent inhibition of Rb phosphorylation, which is a measure of the inhibition of CDK activity, was determined according to the following formula: [formula]
(§4) where “test compound” refers to the average counts per minute of the test duplicates, “nonspecific” refers to the average counts per minute when no CyclinD/Cdk4, etc., was added, and “total” refers to the average counts per minute when no compound was added.

Another assay concerns the target human cyclin E-CDK2 (Homo sapiens, UniProt P24941). Description: FlashPlate kinase assay, cyclin E-CDK2. It is filed as biochemical. To be noted: Rb protein substrate, 1 μM ATP. Here is the method:
as §1, §2, §3, §4

Another assay deals with human cyclin B-CDK1 (Homo sapiens, UniProt P06493). Description: FlashPlate kinase assay, cyclin B-CDK1. It is filed as biochemical. The note with it: Rb protein substrate, 1 μM ATP. Here is the method:
as §1, §2, §3, §4

The subject of the next assay is HCT116. Description: Tetrazolium dye (MTT) proliferation assay. It is filed as cell-based. To be noted: Homo sapiens, HCT-116; HCT116 colorectal carcinoma cell line. As for the experimental part: The cell line used was HCT116, a colorectal carcinoma cell line obtained from the American Type Cell Culture Collection (ATCC;
Rockville, Md.). The cells were grown in McCoy's 5A medium supplemented with 10% FCS and L-glutamine.
Cells were plated at the appropriate seeding density to give logarithmic growth over the course of the assay in a 96-well tissue culture plate. Plates were incubated overnight at 37° C. in a humidified incubator with 5% CO2. The next day, test compounds were serially diluted to four times the final concentration in the appropriate medium containing 1.2% DMSO. One-fourth final volume of each dilution was added in duplicate to the plates containing cells. The same volume of 1.2% DMSO in medium was added to a row of “control wells” such that the final concentration of DMSO in each well was 0.3%. Wells to which no cells were added served as the “blank.” Wells to which no inhibitor was added served as “no inhibitor control.” The plates were) returned to the incubator, and at set time points (determined by their growth curves) plates were analyzed as described below.
3-(4,5-dimethylthiazole-2-yl)-2,5-diphenyl-2H-tetrazolium bromide (thiazolyl blue; MTT; Sigma) was added to each well to yield a final concentration of 1 mg/ml. Plates were returned to the incubator for 2.5-3 hours at 37° C. The MTT-containing medium was removed and the resulting formazan metabolite was solubilized in 100% ethanol with shaking for 15 minutes at room temperature. Absorbance readings were taken in a microtiter plate reader (Dynatech and Molecular Devices plate readers were used interchangeably) at a wavelength of 570 nm with a 650 nm reference. Percent inhibition (% INH) is calculated by subtracting the absorbance of the blank well from all wells, then subtracting the ratio of the average absorbance of each test duplicate (SAVE) by the average of the controls (CAVE) from 1.00. The final number is then multiplied by 100 (% INH=(1.00−SAVE/CAVE)×100).

human cyclin B-CDK1, sequence (P06493 whole entry): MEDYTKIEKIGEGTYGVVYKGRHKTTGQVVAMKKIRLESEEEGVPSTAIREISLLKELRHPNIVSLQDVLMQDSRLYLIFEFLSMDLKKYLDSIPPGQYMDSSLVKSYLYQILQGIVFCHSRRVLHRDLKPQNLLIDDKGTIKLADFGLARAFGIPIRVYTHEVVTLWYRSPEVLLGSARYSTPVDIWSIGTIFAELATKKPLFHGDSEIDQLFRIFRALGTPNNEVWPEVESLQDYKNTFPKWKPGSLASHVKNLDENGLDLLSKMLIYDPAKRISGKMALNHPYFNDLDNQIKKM
human cyclin B-CDK1, sequence (P14635 whole entry partner): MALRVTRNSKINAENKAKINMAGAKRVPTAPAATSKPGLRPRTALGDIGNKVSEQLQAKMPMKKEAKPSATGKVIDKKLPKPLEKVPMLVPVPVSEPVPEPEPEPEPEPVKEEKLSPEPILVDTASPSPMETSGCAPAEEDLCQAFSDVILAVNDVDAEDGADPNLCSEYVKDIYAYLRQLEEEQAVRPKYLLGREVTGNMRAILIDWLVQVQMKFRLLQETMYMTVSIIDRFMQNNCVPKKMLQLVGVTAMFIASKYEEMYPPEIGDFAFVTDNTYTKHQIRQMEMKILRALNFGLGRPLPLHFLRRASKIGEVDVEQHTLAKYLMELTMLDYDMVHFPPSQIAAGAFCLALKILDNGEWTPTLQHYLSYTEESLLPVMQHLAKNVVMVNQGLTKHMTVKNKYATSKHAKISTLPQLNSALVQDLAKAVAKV
human cyclin D1-CDK4, sequence (P11802 whole entry): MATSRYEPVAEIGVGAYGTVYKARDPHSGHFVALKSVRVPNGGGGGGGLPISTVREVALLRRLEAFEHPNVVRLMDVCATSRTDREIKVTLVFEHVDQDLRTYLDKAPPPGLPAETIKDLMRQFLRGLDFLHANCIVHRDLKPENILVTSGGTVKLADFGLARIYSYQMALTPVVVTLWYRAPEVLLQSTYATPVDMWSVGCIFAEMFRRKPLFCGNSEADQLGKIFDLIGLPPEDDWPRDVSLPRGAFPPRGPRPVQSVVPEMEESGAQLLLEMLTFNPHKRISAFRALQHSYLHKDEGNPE
human cyclin D1-CDK4, sequence (P24385 whole entry partner): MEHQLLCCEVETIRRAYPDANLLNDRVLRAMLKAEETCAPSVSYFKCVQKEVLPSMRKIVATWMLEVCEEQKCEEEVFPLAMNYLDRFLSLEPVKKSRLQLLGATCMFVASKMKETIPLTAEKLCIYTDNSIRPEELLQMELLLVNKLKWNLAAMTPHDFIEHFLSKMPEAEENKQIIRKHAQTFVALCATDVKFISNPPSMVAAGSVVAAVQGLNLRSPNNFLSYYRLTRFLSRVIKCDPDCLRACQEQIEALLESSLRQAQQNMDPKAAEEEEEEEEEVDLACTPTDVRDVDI

Regarding `Nc1nc(Nc2ccc(N3CCN(CCO)CC3)cc2)sc1C(=O)c1ccc2c(c1)OCCO2` [Example 49, [4-Amino-2-[[4-[4-(2-hydroxyethyl)-1-piperazinyl]phenyl]amino]-5-thiazolyl](2,3-dihydro-1,4-benzodioxin-6-yl)methanone], the IC50 came out at 0.015 µM on human cyclin D1-CDK4, 1.5 µM against human cyclin E-CDK2, 2.1 µM on human cyclin B-CDK1 and 5.3 µM with HCT116.
For `Nc1nc(Nc2ccc(N3CCN(CCO)CC3)cc2)sc1C(=O)c1ccc(N2CCCC2)cc1` [Example 50, [4-Amino-2-[[4-[4-(2-hydroxyethyl)-1-piperazinyl]phenyl]amino]-5-thiazolyl][4-(1-pyrrolidinyl)phenyl]methanone] the same measures were 0.03 µM, 2.5 µM, 5.5 µM and 9.3 µM.
With `Nc1nc(Nc2ccc(N3CCN(CCO)CC3)cc2)sc1C(=O)c1cccc(F)c1` [Example 51], the IC50 against human cyclin D1-CDK4 is 0.02 µM; against human cyclin E-CDK2, 0.5 µM; at human cyclin B-CDK1, 0.9 µM; in the assay with HCT116 it was 0.9 µM.
Take `Nc1nc(Nc2ccc(N3CCN(CCO)CC3)cc2)sc1C(=O)c1cc(F)cc(F)c1` [Example 52, [4-Amino-2-[[4-[4-(2-hydroxyethyl)-1-piperazinyl]phenyl]amino]-5-thiazolyl](3,5-difluorophenyl)methanone]: the concentration for half-maximal inhibition (IC50) against human cyclin D1-CDK4 turned out to be 0.028 µM; against human cyclin E-CDK2 it was 0.7 µM; against human cyclin B-CDK1 it was 1.2 µM; in the assay on HCT116, 2.3 µM.
In the case of `COc1cccc(C(=O)c2sc(Nc3ccc(N4CCN(CCO)CC4)cc3)nc2N)c1` [Example 53, [4-Amino-2-[[4-[4-(2-hydroxyethyl)-1-piperazinyl]phenyl]amino]-5-thiazolyl](3-methoxyphenyl)methanone], the half-maximal inhibitory concentration (IC50) amounted to 0.006 µM on human cyclin D1-CDK4, 1.3 µM on human cyclin E-CDK2, 2.3 µM on human cyclin B-CDK1 and 2.5 µM with HCT116.
For `Nc1nc(Nc2ccc(N3CCNCC3)cc2)sc1C(=O)c1cccc(F)c1` [Example 54, [4-Amino-2-[[4-(1-piperazinyl)phenyl]amino]-5-thiazolyl](3-fluorophenyl)methanone] the same measures were 0.013 µM, 0.2 µM, 0.3 µM and 0.7 µM.
For `Nc1nc(Nc2ccc(N3CCNCC3)cc2)sc1C(=O)c1ccc(N2CCCC2)cc1` [Example 55, [4-Amino-2-[[4-(1-piperazinyl)phenyl]amino]-5-thiazolyl][4-(1-pyrrolidinyl)phenyl]methanone] the same measures were 0.05 µM, 3.2 µM, 4.3 µM and 3.8 µM.
With `COc1ccc(C(=O)c2sc(Nc3ccc(N4CCNCC4)cc3)nc2N)cc1F` [Example 56, [4-Amino-2-[[4-(1-piperazinyl)phenyl]amino)-5-thiazolyl](3-fluoro-4-methoxyphenyl)methanone], the half-maximal inhibitory concentration (IC50) stood at 0.014 µM against human cyclin D1-CDK4, 0.8 µM against human cyclin E-CDK2, 1 µM against human cyclin B-CDK1 and 0.8 µM with HCT116.
For the compound `CN1CCN(c2ccc(Nc3nc(N)c(C(=O)c4ccc(NCCO)c([N+](=O)[O-])c4)s3)cc2)CC1` [Example 57, [4-Amino-2-[[4-(4-methyl-1-piperazinyl)phenyl]amino]-5-thiazolyl][4-(2-hydroxyethyl)amino-3-nitrophenyl]methanone], the IC50 against human cyclin D1-CDK4 came to 0.009 µM; at human cyclin E-CDK2 it was 1.9 µM; on human cyclin B-CDK1, 0.9 µM; with HCT116 it was 2.1 µM.
For the compound `CN1CCN(c2ccc(Nc3nc(N)c(C(=O)c4ccc(N5CCCC5)c([N+](=O)[O-])c4)s3)cc2)CC1` [Example 58, [4-Amino-2-[[4-(4-methyl-1-piperazinyl)phenyl]amino]-5-thiazolyl][3-nitro-4-(1-pyrrolidinyl)phenyl]methanone], the IC50 at human cyclin D1-CDK4 came out at 0.019 µM; against human cyclin E-CDK2, 2.4 µM; against human cyclin B-CDK1, 3.9 µM; in the assay with HCT116 it was 3.1 µM.
For `CN1CCN(c2ccc(Nc3nc(N)c(C(=O)c4ccc(N5CCOCC5)c([N+](=O)[O-])c4)s3)cc2)CC1` [Example 59, [4-Amino-2-[[4-(4-methyl-1-piperazinyl)phenyl]amino]-5-thiazolyl][3-nitro-4-(4-morpholinyl)phenyl]methanone] the same measures were 0.024 µM, 4.4 µM, 4.3 µM and 3.9 µM.
For `COCCNc1ccc(C(=O)c2sc(Nc3ccc(N4CCN(C)CC4)cc3)nc2N)cc1[N+](=O)[O-]` [Example 60, [4-Amino-2-[[4-(4-methyl-1-piperazinyl)phenyl]amino]-5-thiazolyl][3-nitro-4-[(2-methoxyethyl)amino]phenyl]methanone] the same measures were 0.017 µM, 7.9 µM, 5.9 µM and 4.9 µM.
For `CC(C)C[C@H](CO)Nc1ccc(C(=O)c2sc(Nc3ccc(N4CCN(C)CC4)cc3)nc2N)cc1[N+](=O)[O-]` [Example 63, (R)-[4-Amino-2-[[4-(4-methyl-1-piperazinyl)phenyl]amino]-5-thiazolyl][3-nitro-4-[[1-(hydroxymethyl)-3-methylbutyl]amino]phenyl]methanone] the same measures were 0.025 µM, 5.3 µM, 5.2 µM and 1.3 µM.
Regarding `CN1CCN(c2ccc(Nc3nc(N)c(C(=O)c4ccc(N5CCC(O)CC5)c([N+](=O)[O-])c4)s3)cc2)CC1` [Example 64, [4-Amino-2-[[4-(4-methyl-1-piperazinyl)phenyl]amino]-5-thiazolyl][3-nitro-4-(4-hydroxy-1-piperidinyl)phenyl]methanone], the half-inhibitory concentration (IC50) against human cyclin D1-CDK4 came out at 0.009 µM; at human cyclin E-CDK2 it was 4.8 µM; on human cyclin B-CDK1, 3.5 µM; in the assay on HCT116 it was 8 µM.
Turning to `CN1CCN(c2ccc(Nc3nc(N)c(C(=O)c4ccc(N5CCCC5)c(N)c4)s3)cc2)CC1` [Example 65], the IC50 at human cyclin D1-CDK4 turned out to be 0.026 µM; on human cyclin E-CDK2, 7.4 µM; at human cyclin B-CDK1 it was 2.2 µM; in the assay on HCT116, 1.2 µM.
Consider `CC(C)C[C@H](CO)Nc1ccc(C(=O)c2sc(Nc3ccc(N4CCN(C)CC4)cc3)nc2N)cc1N` [Example 66, (R)-[3-Amino-4-[[1-(hydroxymethyl)-3-methylbutyl]amino]phenyl][4-amino-2-[[4-(4-methyl-1-piperazinyl)phenyl]amino]-5-thiazolyl]methanone], for which the IC50 against human cyclin D1-CDK4 was 0.02 µM; on human cyclin E-CDK2, 3.8 µM; against human cyclin B-CDK1, 9.6 µM; in the assay on HCT116 it was 10.8 µM.
